Data from patent US10709744B1, “Probiotic biofilm suppositories” (priority 2019, dated 2020).
≈ marks a conversion by molar mass, not a printed value. Like-named read-outs stand apart in the source and are kept apart here.

How the values were obtained:
Type in all cases: cell-based
[1] = tested on: Lactobacillus gasseri; experiment: Antibiotic MIC strip assay, planktonic LG; conditions: for MIC: Lactobacillus gasseri
Description: (§1) For antibiotic assay, and overnight culture was diluted to an optical start density (OD) of 0.13. […] Plates were incubated at 37° C. for 24 h before minimum inhibitory concentration (MIC) value were determined.

[2] = tested on: Lactobacillus jensenii; experiment: Antibiotic MIC strip assay, planktonic LJ; conditions: for MIC: Lactobacillus jensenii
Description: as §1

[3] = tested on: Lactobacillus iners; experiment: Antibiotic MIC strip assay, planktonic LI
Description: as §1

[4] = tested on: Lactobacillus crispatus; experiment: Antibiotic MIC strip assay, planktonic LCr; conditions: for MIC: Lactobacillus crispatus
Description: as §1

[5] = tested on: Lactobacillus rhamnosus; experiment: Antibiotic MIC strip assay, planktonic LRh
Description: as §1

[6] = tested on: LP Bacteria in form of biofilm; experiment: Effect of additives (cranberries, ascorbic acid) on Bacteria in form of biofilm survival and growth
Description: High vaginal pH is associated with an increase of vaginal pathogens and the acidity of the vagina has long been understood to be a protective mechanism against colonization of anaerobes pathogens while creating a favourable environment for the lactobacilli to thrive. Examining the effect of different additives (cranberries and ascorbic acid) on Bacteria in form of biofilm LP (as part of a small scale). […] The aim is to add one of these additives along with the Bacteria in form of biofilm in the suppository composition. As such, their effect on Bacteria in form of biofilm survival and growth was tested.

[7] = planktonic LG, MIC strips, 24 h 37° C., read-out: MIC
[8] = planktonic LJ, MIC strips, 24 h 37° C., read-out: MIC
[9] = planktonic LI, MIC strips, 24 h 37° C., read-out: MIC
[10] = planktonic LCr, MIC strips, 24 h 37° C., read-out: MIC
[11] = Lacticaseibacillus rhamnosus, planktonic LRh, Table 7, read-out: MIC
[12] = Lacticaseibacillus rhamnosus, planktonic LRh, read-out: MIC

| Structure (SMILES) | MIC [1, 7] [µg/mL] | MIC [2, 8] [µg/mL] | MIC [3, 9] [µg/mL] | MIC [4, 10] [µg/mL] | MIC [5, 11] [µg/mL] | MIC [5, 12] [µg/mL] | other results |
| --- | --- | --- | --- | --- | --- | --- | --- |
| CN[C@H](CC(C)C)C(=O)N[C@H]1C(=O)N[C@@H](CC(N)=O)C(=O)N[C@H]2C(=O)N[C@H]3C(=O)N[C@H](C(=O)N[C@H](C(=O)O)c4cc(O)cc(O)c4-c4cc3ccc4O)[C@H](O)c3ccc(c(Cl)c3)Oc3cc2cc(c3O[C@@H]2O[C@H](CO)[C@@H](O)[C@H](O)[C@H]2O[C@H]2C[C@](C)(N)[C@H](O)[C@H](C)O2)Oc2ccc(cc2Cl)[C@H]1O [VAN, vancomycin] |  |  |  |  |  |  | MIC ([1]; 24 h): 1.5 µg/mL (≈ 1.04 µM); MIC ([2]; 24 h): 1.5 µg/mL (≈ 1.04 µM); MIC ([3]; 24 h): 4 µg/mL (≈ 2.76 µM); MIC ([4]; 24 h): 1.5 µg/mL (≈ 1.04 µM); MIC ([5]; Lacticaseibacillus rhamnosus): > 256 µg/mL; MIC ([5]; planktonic LRh, Table 7): >256 µg/mL |
| CO[C@@H]1[C@@H](OC(N)=O)[C@@H](O)[C@H](Oc2ccc3c(O)c(NC(=O)c4ccc(O)c(CC=C(C)C)c4)c(=O)oc3c2C)OC1(C)C [NVB, novobiocin] | 2 (≈ 3.26 µM) | 2 (≈ 3.26 µM) | 16 (≈ 26.1 µM) | 2 (≈ 3.26 µM) | 2 (≈ 3.26 µM) | 2 (≈ 3.26 µM) |  |
| O=C(O)c1cn(C2CC2)c2cc(N3CCNCC3)c(F)cc2c1=O [CIP, ciprofloxacin] | > 256 | > 256 |  | > 256 | 2 (≈ 6.04 µM) | 0.25 (≈ 0.754 µM) | susceptibility of planktonic bacteria to antibiotic ([1]; planktonic LG): full resistance; susceptibility of planktonic bacteria to antibiotic ([2]; planktonic LJ): not susceptible; susceptibility of planktonic bacteria to antibiotic ([4]; planktonic LCr): not susceptible |
| CC1(C)S[C@@H]2[C@H](NC(=O)C(C(=O)O)c3ccccc3)C(=O)N2[C@H]1C(=O)O (stereo partly drawn) [CB, carbenicillin] | 4 (≈ 10.6 µM) | 8 (≈ 21.1 µM) | 64 (≈ 169 µM) | 4 (≈ 10.6 µM) | 4 (≈ 10.6 µM) | 4 (≈ 10.6 µM) |  |
| O=C1O[C@H]([C@@H](O)CO)C(O)=C1O [AA, Ascorbic Acid] |  |  |  |  |  |  | effect of addition of supplement on Bacteria in form of biofilm growth [6]: did not affect |
